Assay results from patent US5840918A, “Isoprenyl transferase inhibitors” (Eisai Co., Ltd., priority 1997, dated 1998).

How the values were obtained:
FTase = target: T1, FTase (Bos taurus, UniProt P29702+P49355); test: Inhibition of FTase-mediated prenylation (in vitro prenylation assay); type: biochemical; details: Table 1; partially purified FTase, 3 μM recombinant H-ras, 440 nM [3H]FPP, 15 min 37° C
T1 construct: bovine brain by inference from the cited Moores et al. 1991
Excerpt: (§1) Nanomolar concentrations of the indicated compounds were sufficient to inhibit farnesylation of ras proteins in vitro. For screening candidate compounds useful for the treatment of ras-associated tumors, the FTase assay is preferred. […] Substitutions which confer GGTase specificity as taught herein also produced potent inhibitors of GGTase.

GGTase = test: Inhibition of GGTase-mediated prenylation (in vitro prenylation assay); type: biochemical; details: Table 1; partially purified GGTase, 5 μM recombinant H-ras (61L, CAIL), 1 μM [3H] geranylgeranyl diphosphate
Excerpt: as §1

[1] = system: H-ras farnesylation in H-ras (61L) transformed NIH3T3 fibroblasts; test: Inhibition of H-ras farnesylation in whole cells (Western blot); type: cell-based, mouse
Protocol: The ability of compounds of the invention to inhibit H-ras farnesylation and rap1 geranylgeranylation in whole cells was determined. H-ras (61L) transformed NIH3T3 fibroblasts were generously provided by C. Der, Univ. N. Carolina. These fibroblasts were treated for 24 h with 50 μM lovastatin (control) or the indicated concentrations of inhibitor. The cells were lysed in 1% NP-40, 5 mM Tris-HCl (pH 8.0), 5 mM EDTA, 0.1 mM N-tosyl-L-phenylalanine chloromethyl ketone, 0.1 mM N-tosyl-L-lysine chloromethyl ketone, and 1 mM phenylmethylsulfonyl fluoride. The lysate was centrifuged (15000×g, 5 min.) and the supernatant was used as a cell extract. […] After transfer to IMMOBILON P™ membrane (Millipore), the blots were probed with LA069 mouse monoclonal antibody to H-ras (Quality Biotech), or rabbit polyclonal antibody to rap1/Krev (Santa Cruz Biotechnology). All Western blots were developed using ECL chemiluminescent reagents (Amersham).

[2] = Mus musculus, NIH3T3, 24 h, Table 2

SMILES	IC50 (FTase) [nM]	IC50 (GGTase) [nM]	IC50 ([1]; Mus musculus, NIH3T3, Table 2, 24 h) [nM]	IC50 ([1]; Table 2, 24 h) [nM]	IC50 [1, 2] [nM]
CC(C)[C@H](/C=C/C(N)CS)CNC(Cc1cccs1)C(=O)N[C@@H](CCS(C)(=O)=O)C(=O)O (stereo partly shown) [PA111]	13	270	130		
C[C@H](/C=C/C(N)CS)/C=C/C(Cc1ccccc1)C(=O)N[C@@H](CCC(N)=O)C(=O)O (stereo partly shown) [PD102]	394			75000	
CSCC[C@H](NC(=O)c1cc(C/C=C\C(N)CS)ccc1-c1ccccc1)C(=O)O (stereo partly shown) [PM101]	24	793			14600
COC(=O)[C@H](CCSC)NC(=O)c1cc(C/C=C/C(N)CS)ccc1-c1ccsc1 (stereo partly shown) [PM192]	280	3790			230
CSCC[C@H](NC(=O)c1cc(C/C=C/C(N)CS)ccc1-c1ccccc1)C(N)=O (stereo partly shown) [PM081]	170	1680			23400
CSCC[C@H](NC(=O)C(/C=C\[C@@H](/C=C/C(N)CS)C(C)C)Cc1ccccc1)C(=O)O (stereo partly shown) [PD401]	28	1400			100 to 1000
COC(=O)[C@H](CCS(C)(=O)=O)NC(=O)c1cc(C/C=C/C(N)CS)ccc1-c1ccsc1 (stereo partly shown) [PM202]	16	7420			1200
CSCC[C@H](NC(=O)C(Cc1cccs1)NC[C@@H](/C=C/C(N)CS)C(C)C)C(=O)O (stereo partly shown) [PA031]	3.6	215			1000
COC(=O)[C@H](CCSC)NC(=O)C(NC[C@@H](/C=C/C(N)CS)C(C)C)C(C)C (stereo partly shown) [PA101]	170	1300			240
COC(=O)[C@H](CCSC)NC(=O)C(/C=C/[C@@H](/C=C/C(N)CS)C(C)C)C(C)C (stereo partly shown) [PD411]	560	8400			220
CSCCC(NC(=O)C(C=CC(C=CC(N)CSSCC(N)C=CC(C=CC(Cc1ccccc1)C(=O)NC(CCSC)C(=O)O)C(C)C)C(C)C)Cc1ccccc1)C(=O)O (stereo not shown) [PD212]	3	4.5			110
COC(=O)[C@H](CCS(C)(=O)=O)NC(=O)C(Cc1cccs1)NC[C@@H](/C=C/C(N)CS)C(C)C (stereo partly shown) [PA011]	140	11000			100
COc1ccc(-c2ccc(C/C=C/[C@@H](N)CS)cc2C(=O)N[C@@H](CCSC)C(=O)O)cc1 [PM011]	1130	1600			> 100000
COC(=O)[C@H](CCS(C)(=O)=O)NC(=O)C(/C=C/[C@@H](/C=C/C(N)CS)C(C)C)C(C)C (stereo partly shown) [PD132]	245	4770			2600
CC[C@H](C)[C@H](NC[C@@H](/C=C/C(N)CS)C(C)C)C(=O)N[C@@H](CCSC)C(=O)O (stereo partly shown) [PA051]	20	76			1900
CC(C)[C@@H](/C=C\C(Cc1ccccc1)C(=O)NC(CO)C(=O)O)/C=C/C(N)CS (stereo partly shown) [PD361]	0.1				3500
COc1ccccc1-c1ccc(C/C=C/C(N)CS)cc1C(=O)N[C@@H](CCSC)C(=O)O (stereo partly shown) [PM142]	8	72			1100
CSCC[C@H](NC(=O)C(/C=C/[C@@H](/C=C/[C@@H](N)CS)C(C)C)C(C)C)C(=O)NC(C)(C)C (stereo partly shown) [PD222]	710	3040			> 50000
CC[C@H](C)[C@H](NC[C@@H](/C=C/C(N)CS)C(C)C)C(=O)N[C@@H](CCSC)C(=O)OC (stereo partly shown) [PA141]	95	880			17
CC(C)[C@@H](/C=C\C(Cc1ccccc1)C(=O)NC(CCC(N)=O)C(=O)O)/C=C/C(N)CS (stereo partly shown) [PD301]	2	3.7			4500
CCc1ccc(C/C=C/C(N)CS)cc1C(=O)N[C@@H](CCSC)C(=O)O (stereo partly shown) [PM062]	9	420			360
C[C@H](/C=C/C(N)CS)/C=C/C(Cc1ccccc1)C(=O)N[C@@H](CCC(N)=O)C(=O)O (stereo partly shown) [PD062]	200	1760		21000	
NC(/C=C/Cc1ccc(-c2ccsc2)c(C(=O)N[C@@H](Cc2cccs2)C(=O)O)c1)CS (stereo partly shown) [PM152]	38	270			40300
CSCC[C@H](NC(=O)C(/C=C/[C@@H](/C=C/C(N)CS)C(C)(C)C)Cc1ccccc1)C(=O)O (stereo partly shown) [PD182]	< 1	63.3		2800	
CSCC[C@H](NC(=O)C(Cc1cccs1)N(C)C[C@@H](/C=C/C(N)CS)C(C)C)C(=O)O (stereo partly shown) [PA071]	22	500			3100
CCc1ccc(C/C=C/C(N)CS)cc1C(=O)N[C@@H](CCSC)C(=O)OC (stereo partly shown) [PM212]	56	1840			45

SMILES	IC50 (FTase) [nM]	IC50 (GGTase) [nM]	IC50 ([1]; Mus musculus, NIH3T3, Table 2, 24 h) [nM]	IC50 ([1]; Table 2, 24 h) [nM]	IC50 [1, 2] [nM]
CSCC[C@H](NC(=O)C(NC[C@@H](/C=C/C(N)CS)C(C)C)C(C)C)C(=O)O (stereo partly shown) [PA061]	2.1	48			580
CSCC[C@H](NC(=O)C(/C=C/[C@@H](/C=C/C(N)CS)C(C)C)C(C)C)C(=O)N1CCOCC1 (stereo partly shown) [PD032]	450	2860			1950
CSCC[C@H](NCC(/C=C\[C@@H](/C=C/C(N)CS)C(C)C)Cc1ccccc1)C(=O)O (stereo partly shown) [PD431]	6	1080			
CCOC(=O)C(CCSC)NC(=O)C(C=CC(C=CC(N)CS)Cc1ccccc1)C(C)C (stereo not shown) [PD421]	570	3400			1900
CC(C)C[C@H](NC(=O)c1cc(C/C=C/C(N)CS)ccc1-c1ccccc1)C(=O)O (stereo partly shown) [PM131]	605	2.4			> 250000
CSCC[C@H](NC(=O)C(/C=C/[C@@H](/C=C/C(N)CS)C(C)(C)C)C(C)C)C(=O)O (single isomer, unassigned) [PD152]	23	44			320
CS(=O)(=O)CC[C@H](NC(=O)c1cc(C/C=C/C(N)CS)ccc1-c1ccccc1)C(=O)O (stereo partly shown) [PM161]	0.9	2140			18900
CSCC[C@H](NC(=O)c1cc(C/C=C/[C@@H](N)CS)ccc1-c1cc(C(F)(F)F)cc(C(F)(F)F)c1)C(=O)O [PM042]	3100	320			> 500000
COC(=O)[C@H](CCSC)NC(=O)C(Cc1cccs1)N(C)C[C@@H](/C=C/C(N)CS)C(C)C (stereo partly shown) [PA131]	28	1800			39
COC(=O)[C@H](CCSC)N(C)C(=O)C(/C=C\[C@@H](/C=C/C(N)CS)C(C)C)Cc1ccccc1 (stereo partly shown) [PD451]	146	1110			400
CCOC(=O)[C@H](CCSC)NC(=O)c1cc(C/C=C/C(N)CS)ccc1-c1ccccc1 (stereo partly shown) [PM151]	605	3870			2900
CSCC[C@H](NC(=O)C(/C=C/[C@@H](/C=C/C(N)CS)C(C)C)C(C)C)C(=O)N(C)Cc1ccccn1 (stereo partly shown) [PD072]	42	680			7400
NC(=O)CC[C@H](NC(=O)c1cc(C/C=C/C(N)CS)ccc1-c1ccccc1)C(=O)O (stereo partly shown) [PM051]	0.85	1550			23500
CSCC[C@H](NC(=O)C(/C=C/[C@@H](/C=C/C(N)CS)C(C)C)C(C)C)C(=O)O (stereo partly shown) [PD341]	0.2				290
CSCC[C@H](NC(=O)C(/C=C/[C@@H](/C=C/C(N)CS)C(C)C)C(C)C)C(N)=O (stereo partly shown) [PD042]	5	1620			1950
CC(C)C(/C=C/[C@@H](/C=C/C(N)CS)C(C)C)C(=O)N[C@@H](CCC(N)=O)C(=O)O (stereo partly shown) [PD022]	5.2	3060			400
COC(=O)[C@H](Cc1cccs1)NC(=O)c1cc(C/C=C/C(N)CS)ccc1-c1ccsc1 (stereo partly shown) [PM092]	215	3500			2700
CSCC[C@H](NCc1cc(C/C=C/C(N)CS)ccc1-c1ccccc1)C(=O)O (stereo partly shown) [PM121]	22	1720			23400
CSCCC(NC(=O)C(/C=C\C(/C=C/C(N)CS)C(C)C)Cc1ccccc1)C(=O)O (stereo not shown) [PD311]	69	570			100 to 1000
CSCCC(NC(=O)C(/C=C\[C@@H](/C=C/C1CSC(C)(C)N1)C(C)C)Cc1ccccc1)C(=O)O (stereo partly shown) [PD321]	25	14			100 to 1000
CSCC[C@H](NC(=O)C(/C=C/[C@@H](/C=C/C(N)CS)Cc1ccccc1)C(C)C)C(=O)O (stereo partly shown) [PD391]	29				16400
CSCC[C@H](NC(=O)C(/C=C/C(/C=C/CCS)C(C)C)Cc1ccccc1)C(=O)O (single isomer, unassigned) [PD052]	2810	8050			
CC(C)CC(NC(=O)C(/C=C\[C@@H](/C=C/C(N)CS)C(C)C)Cc1ccccc1)C(=O)O (stereo partly shown) [PD381]	80				
COC(=O)C(CCSC)NC(=O)C(/C=C\[C@@H](/C=C/C(N)CS)C(C)C)Cc1ccccc1 (stereo partly shown) [PD371]	38				90
CSCCC(=O)NCC(/C=C/[C@@H](/C=C/[C@@H](N)CS)C(C)C)C(C)C (stereo partly shown) [PD082]	1570				
